Laboratory results taken from EP2613758B1, “MACROEMULSIONS WITH IMPROVED DEODORANT EFFICACY” (Beiersdorf AG, priority 2010, dated 2012).

Legend:
Bakterien = test: Investigations of efficacy of amphiphilic actives from micro- and macroemulsions (method not specified)
S. epidermidis = test: Suspension test (germ count reduction by the formulation); type: cell-based; conditions: active alone; Ethylhexylglycerin 0,5% in Makroemulsion ohne Octenidine (Abbildung 4)
Description: Die Wirksamkeit wurde mittels der Freisetzung von Octenidine aus Makro- bzw. Mikroemulsionen untersucht, wie es beispielhaft in Abbildung 3 und 4 dargestellt ist. Ebenso sind Untersuchungen durchgeführt worden für W/O- Aerosol-Zubereitungen einmal mit und einmal ohne Octenidine, die zu gleichen Ergebnissen geführt haben. In den dargestellten Suspensionstests wurden zu 500µL einer Bakteriensuspension (S. epidermidis) 250 mg der zu testenden Formulierung gegeben (bei der Positivkontrolle nur 250 mg des Bakterienmediums). Diese Mischungen werden mit Medium auf 1000µL aufgefüllt. Die Suspension enthält dann ca. 1*10^6 KBE/mL (KBE: koloniebildende Einheiten). Die Ansätze werden bei 37°C unter Rotation für drei Stunden inkubiert. Nach 0, 20, 60 und 180 min werden Proben genommen, verdünnt und auf Agarplatten ausplattiert. Diese werden 24h bei 37°C zur Anzucht der verbleibenden Keime inkubiert. Gute und in vivo wirksame Deodorant-Formulierungen reduzieren die Keimzahl bereits nach 20 Minuten auf Nachweisgrenze von 100 KBE/mL. Formulierungen mit schlechterer Keimzahl-Reduktion zeigen in vivo keine ausreichende Deoleistung.

Structure (SMILES) | Wirksamkeit (Bakterien; aus Makroemulsionen) | Wirksamkeit (Bakterien; in einer Mikroemulsion) | Wirksamkeit im Suspensionstest (Keimzahl-Reduktion) (S. epidermidis)
CC(C)(C)CC(C)(C)c1ccc(OCCOCC[N+](C)(C)Cc2ccccc2)cc1 [Benzethonium chloride] | zeigen eine Wirksamkeit | unwirksam | –
CCCCC(CC)COCC(O)CO (centres unmarked) [Ethylhexylglycerin, 1-(2-Ethylhexyl)glycerinether] | – | – | nicht wirksam
CCCCCCCCN=c1ccn(CCCCCCCCCCn2ccc(=NCCCCCCCC)cc2)cc1.Cl.Cl [Octenidine HCl, N, N'-(1,10-decanediyldi-1[4H]-pyridinyl-4-ylidene)-bis-(octanamine) dihydrochloride] | zeigen eine Wirksamkeit | – | gewünschte Wirksamkeit
